US12649733B2, “3,6-diamino-pyridazin-3-yl derivatives, pharmaceutical compositions containing them and their uses as pro-apoptotic agents” (LES LABORATOIRES SERVIER, priority 2019, dated 2026)

Experiments:
Bcl-xL protein = molecular target: T1, Bcl-xL protein (Homo sapiens, UniProt Q07817, N197C); test: Fluorescence quenching assay (PUMA peptide displacement); type: binding; conditions: 1 nM protein, 400 nM peptide, 2 hours at 23° C.; KI determined from IC50
T1 construct: (2-197)[N197C]; His-His (two His8 stretches joined by a Gly/Ala/Ser/Thr linker)
T1 sequence (Q07817 2-197 N197C): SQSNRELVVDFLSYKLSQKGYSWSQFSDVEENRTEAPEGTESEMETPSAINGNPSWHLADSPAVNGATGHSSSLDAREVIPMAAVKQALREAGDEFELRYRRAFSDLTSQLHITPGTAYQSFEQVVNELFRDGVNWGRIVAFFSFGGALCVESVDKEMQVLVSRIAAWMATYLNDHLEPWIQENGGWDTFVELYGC
Method in brief: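 Compounds were tested as an 11-point series in pH 7.4 HEPES/NaCl/Tween buffer with 5% DMSO, 2 h at 23 °C. Cy5-tagged Bcl-xL(2-197, N197C) at 1 nM and quencher-tagged PUMA peptide at 400 nM were used. Competitive binders restore fluorescence (620/680 nm), and IC50 values were converted to KI.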

BCLXL [1] = molecular target: T2, BCLXL (Homo sapiens, UniProt Q07817, V10N/V9A); test: AlphaLISA assay (BIM peptide displacement); type: binding; conditions: 20 pM protein, 1 nM peptide
T2 sequence (Q07817 with tags, fused parts or gaps V9A/V10N): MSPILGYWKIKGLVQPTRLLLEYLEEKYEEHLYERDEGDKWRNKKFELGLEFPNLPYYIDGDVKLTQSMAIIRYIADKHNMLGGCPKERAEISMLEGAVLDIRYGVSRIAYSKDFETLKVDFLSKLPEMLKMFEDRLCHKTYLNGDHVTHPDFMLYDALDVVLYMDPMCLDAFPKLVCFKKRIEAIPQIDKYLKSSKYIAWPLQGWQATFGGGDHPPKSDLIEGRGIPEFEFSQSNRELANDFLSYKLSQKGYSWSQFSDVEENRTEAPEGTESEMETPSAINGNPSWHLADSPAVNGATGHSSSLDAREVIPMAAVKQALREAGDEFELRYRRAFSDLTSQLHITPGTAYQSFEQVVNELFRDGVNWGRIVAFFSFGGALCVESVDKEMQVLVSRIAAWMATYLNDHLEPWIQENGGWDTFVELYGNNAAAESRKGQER
Description: AlphaLISA assay measures an increase in alpha signal upon binding biotinylated GST(1-218)-(FACTOR_XA)-hs ? (2-209)(SEQ ID:02—GST UniProtKB® primary accession number P08515 and BCLXL UniProtKB® primary accession number Q07817-1) coupled to a Streptavidin labeled Alpha donor bead to N-terminally labeled peptide derived from BIM (Fluorescein-betaAla-Ahx-SEQID:05, wherein SEQ ID:05 is […]) coupled to an Anti-FTIC AlphaLISA acceptor bead.
GST(1-218)(FACTOR_XA)-hs ? (2-209) was biotinylated in 50 mM phosphate buffer using a 20 fold excess of EZ Link NHS-LC-Biotin (thermoFisher catalogue number 21336) overnight at 4° C.
The addition of a compound which binds competitively to the same site as the peptide will result in an decrease in the Alpha signal of the available donor bead-protein-peptide-acceptor bead complex due to displacement of the peptide.
An 11-point serial dilution of each compound was prepared in DMSO, the final buffer conditions were 10 mM 4-(2-hydroxyethyl)-1-piperazineethanesulfonic acid [HEPES], 150 mM NaCl, 0.05% Tween 20, pH 7.4 and 4% DMSO. The final protein concentration in the assay was 20 pM with the peptide present at 1 nM). Alpha beads were used at a final concentration of 5 ug/mL. The experiments were incubated for overnight at 23° C. after acceptor bead addition. Finally the donor bead is added and incubated for 2 hours at 23° C. before Alpha signal measured on a Biotek Synergy2 plate reader (Excitation 680 nm, emission 615 nm).

MOLT-4 cells = test: MOLT-4 cell viability, MTT assay; type: cell-based; conditions: Homo sapiens, MOLT-4, 48 h, 48 h exposure
Method in brief: (§1)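 Viability read by MTT reduction (OD 540 nm after overnight SDS/HCl lysis) after 48 h compound treatment of cells in RPMI 1640/10% FBS. Triplicates at nine concentrations, 3.16-fold apart; four-parameter curve fitting yields IC50.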

H146 cells = test: H146 cell viability, MTT assay; type: cell-based; conditions: Homo sapiens, NCI-H146, 48 h, 48 h exposure
Method in brief: as §1

BCLXL [2] = molecular target: T2, BCLXL; test: Fluorescence polarisation assay (PUMA-based probe displacement); type: binding; further: 20 nM protein, 10 nM fluorescent probe

Row | Ki (Bcl-xL protein) [nM] | IC50 (BCLXL [1]) [nM] | IC50 (MOLT-4 cells) [nM] | IC50 (H146 cells) [nM] | Ki (BCLXL [2]) [nM] | Compound
1 | 0.0012 | 0.0057 | – | – | – | Cc1cc(N(CCCCO)c2nc(C(=O)O)c(CCCOc3ccc(C#CCNCCCS(=O)(=O)O)cc3F)s2)nnc1Nc1nc2ccccc2s1 [Example 148, 2-[[6-(1,3-Benzothiazol-2-ylamino)-5-methyl-pyridazin-3-yl]-(4-hydroxybutyl)amino]-5-[3-[2-fluoro-4-[3-(3-sulfopropylamino)prop-1-ynyl]phenoxy]propyl]thiazole-4-carboxylic acid]
2 | – | 5.3 | 1130 | 5390 | 6.4 | Cc1cc(N(C)c2nc(C(=O)O)c(C3CCN(c4ccccc4)CC3)s2)nnc1Nc1nc2ccccc2s1 [Example 91, 2-({6-[(1,3-Benzothiazol-2-yl)amino]-5-methylpyridazin-3-yl}(methyl)amino)-5-(1-phenylpiperidin-4-yl)-1,3-thiazole-4-carboxylic acid]
3 | – | 22 | 5010 | 9270 | 24 | Cc1cc(N(C)c2nc(C(=O)O)c(C3CCN(S(=O)(=O)Cc4ccccc4)CC3)s2)nnc1Nc1nc2ccccc2s1 [Example 95, 2-({6-[(1,3-Benzothiazol-2-yl)amino]-5-methylpyridazin-3-yl}(methyl)amino)-5-(1-phenylmethanesulfonylpiperidin-4-yl)-1,3-thiazole-4-carboxylic acid]
4 | – | 0.0066 | 11.3 | 9.04 | < 1 | CNCC#Cc1ccc(OCCCc2sc(N(CCCO)c3cc(C)c(Nc4nc5ccccc5s4)nn3)nc2C(=O)O)c(F)c1 [Example 127, 2-[[6-(1,3-Benzothiazol-2-ylamino)-5-methyl-pyridazin-3-yl]-(3-hydroxypropyl)amino]-5-[3-[2-fluoro-4-[3-(methylamino)prop-1-ynyl]phenoxy]propyl]thiazole-4-carboxylic acid]
5 | – | 0.0022 | 483 | 1190 | < 1 | Cc1cc(N(C)c2nc(C(=O)O)c(CCCOc3ccc(C#CC[N+](C)(C)CCCS(=O)(=O)[O-])cc3F)s2)nnc1Nc1nc2ccccc2s1 [Example 101, 3-[3-[4-[3-[2-[[6-(1,3-Benzothiazol-2-ylamino)-5-methyl-pyridazin-3-yl]-methyl-amino]-4-carboxy-thiazol-5-yl]propoxy]-3-fluoro-phenyl]prop-2-ynyl-dimethyl-ammonio]propane-1-sulfonate]
6 | – | 6.4 | 9400 | > 15000 | 6.8 | COCC(O)CCN(c1cc(C)c(Nc2nc3ccccc3s2)nn1)c1nc(C(=O)O)cs1 (stereo not shown) [Example 93, 2-[[6-(1,3-Benzothiazol-2-ylamino)-5-methyl-pyridazin-3-yl]-(3-hydroxy-4-methoxy-butyl)amino]thiazole-4-carboxylic acid]
7 | – | 46 | > 15000 | > 15000 | 68 | Cc1cc(N(C)c2nc(C(=O)O)c(C3CCN(S(=O)(=O)c4ccccc4)CC3)s2)nnc1Nc1nc2ccccc2s1 [Example 92, 5-[1-(Benzenesulfonyl)piperidin-4-yl]-2-({6-[(1,3-benzothiazol-2-yl)amino]-5-methylpyridazin-3-yl}(methyl)amino)-1,3-thiazole-4-carboxylic acid]
8 | – | 0.004 | 16.5 | 6.25 | < 1 | Cc1cc(N(CCC(O)CO)c2nc(C(=O)O)c(CCCOc3ccc(C#CCN(C)C)cc3F)s2)nnc1Nc1nc2ccccc2s1 (stereo not shown) [Example 123, 2-[[6-(1,3-Benzothiazol-2-ylamino)-5-methyl-pyridazin-3-yl]-(3,4-dihydroxybutyl)amino]-5-[3-[4-[3-(dimethylamino)prop-1-ynyl]-2-fluoro-phenoxy]propyl]thiazole-4-carboxylic acid]
9 | – | 0.032 | 3.23 | 30.2 | < 1 | Cc1cc(N(C)c2nc(C(=O)O)c(C[C@H](C)COc3ccc(C#CCN(C)C)cc3F)s2)nnc1Nc1nc2ccccc2s1 [Example 161, 2-({6-[(1,3-Benzothiazol-2-yl)amino]-5-methylpyridazin-3-yl}(methyl)amino)-5-[(2S)-3-{4-[3-(dimethylamino)prop-1-yn-1-yl]-2-fluorophenoxy}-2-methylpropyl]-1,3-thiazole-4-carboxylic acid]
10 | – | 1.8 | > 15000 | > 15000 | 2.3 | COC(CO)CCN(c1cc(C)c(Nc2nc3ccccc3s2)nn1)c1nc(C(=O)O)cs1 (stereo not shown) [Example 98, 2-[[6-(1,3-Benzothiazol-2-ylamino)-5-methyl-pyridazin-3-yl]-(4-hydroxy-3-methoxy-butyl)amino]thiazole-4-carboxylic acid]

Further lines, the compound ahead of its results:

Row | Compound | Ki (Bcl-xL protein) [nM] | IC50 (BCLXL [1]) [nM] | IC50 (MOLT-4 cells) [nM] | IC50 (H146 cells) [nM] | Ki (BCLXL [2]) [nM]
11 | Cc1cc(N(C)c2nc(C(=O)O)c(CCCOc3ccccc3F)s2)nnc1Nc1nc2ccccc2s1 [Example 59, 2-({6-[(1,3-Benzothiazol-2-yl)amino]-5-methylpyridazin-3-yl}(methyl)amino)-5-[3-(2-fluorophenoxy)propyl]-1,3-thiazole-4-carboxylic acid] | – | 0.14 | 76.1 | 271 | < 1
12 | Cc1cc(N(CCC(O)CO)c2nc(C(=O)O)cs2)nnc1Nc1nc2ccccc2s1 (stereo not shown) [Example 85, 2-[[6-(1,3-Benzothiazol-2-ylamino)-5-methyl-pyridazin-3-yl]-(3,4-dihydroxybutyl)amino]thiazole-4-carboxylic acid] | – | 12 | > 15000 | > 15000 | < 1
13 | COCCCN(c1cc(C)c(Nc2nc3ccccc3s2)nn1)c1nc(C(=O)O)c(CCCOc2ccccc2)s1 [Example 65, 2-{[6-[(1,3-Benzothiazol-2-yl)amino]-5-methylpyridazin-3-yl}(3-methoxypropyl)amino)-5-(3-phenoxypropyl)-1,3-thiazole-4-carboxylic acid] | – | 1 | 236 | 865 | < 1
14 | Cc1c(Nc2nc(C(=O)O)c(CCCOc3ccc(C#CCN(C)C)cc3F)s2)nnc(Nc2nc3ccccc3s2)c1C [Example 3, 2-({6-[(1,3-Benzothiazol-2-yl)amino]-4,5-dimethylpyridazin-3-yl}amine)-5-(3-{4-[3-(dimethylamino)prop-1-yn-1-yl]-2-fluorophenoxy}propyl)-1,3-thiazole-4-carboxylic acid] | – | 0.096 | 90 | 42 | 1.9
15 | Cc1cc(N(C)c2nc(C(=O)O)c(C3CCN(C(=O)c4ccccc4)CC3)s2)nnc1Nc1nc2ccccc2s1 [Example 89, 5-(1-Benzoylpiperidin-4-yl)-2-({6-[(1,3-benzothiazol-2-yl)amino]-5-methylpyridazin-3-yl}(methyl)amino)-1,3-thiazole-4-carboxylic acid] | – | 150 | 13100 | > 15000 | 160
16 | COCCCN(c1cc(C)c(Nc2nc3ccccc3s2)nn1)c1nc(C(=O)O)c(CCCOc2ccc(C#CCN(C)C)cc2F)s1 [Example 54, 2-({6-[(1,3-Benzothiazol-2-yl)amino]-5-methylpyridazin-3-yl}(3-methoxypropyl)amino)-5-(3-{4-[3-(dimethylamino)prop-1-yn-1-yl]-2-fluorophenoxy}propyl)-1,3-thiazole-4-carboxylic acid] | – | 0.025 | 5.07 | 35.2 | 1.4
17 | Cc1cc(N(C)c2nc(C(=O)O)c(CCCOc3ccccc3)s2)nnc1Nc1nc2ccccc2s1 [Example 63, 2-({6-[(1,3-Benzothiazol-2-yl)amino]-5-methylpyridazin-3-yl}(methyl)amino)-5-(3-phenoxypropyl)-1,3-thiazole-4-carboxylic acid] | – | 0.1 | 85.3 | 205 | < 1
18 | Cc1cc(N(C)c2ccc(-c3cnn(CC45CC6CC(CC(C6)C4)C5)c3C)c(C(=O)O)n2)nnc1Nc1nc2ccccc2s1 [Example 90, 3-{1-[(Adamantan-1-yl)methyl]-5-methyl-1H-pyrazol-4-yl}-6-({6-[(1,3-benzothiazol-2-yl)amino]-5-methylpyridazin-3-yl}(methyl)amino)pyridine-2-carboxylic acid] | – | 0.023 | 23.3 | 201 | < 1
